{"source": "patent US20100004248A1", "about": "“Use of a Nitric Oxide Synthase Modulator for the Treatment of Cardiac Indications” (priority 2005, published 2010)", "key": {"[1]": {"tested_on": "reactive oxygen species", "assay": "Reactive oxygen species generation in TAC myocardium (luminol, lucigenin, DHE, DCF)", "assay_type": "in vivo, mouse", "settings": "WT mice, TAC 3 weeks, oral co-treatment", "procedure": "Reactive oxygen species generation was examined by several independent methods. Superoxide production in left ventricular tissue homogenates was determined by luminol-enhanced chemiluminescence (EMD Biosciences). Flash frozen myocardium was homogenized in iced PBS buffer, centrifuged, and the precipitate re-suspended in assay buffer to a final concentration of 100 μM luminol following manufacturer's instructions. Phorbol-12-myristate-13-acetate or other oxidase stimulators were not used in the assay. Data were normalized by sample weight. In addition, fresh frozen left ventricular myocardium (8 μm slices) was incubated for 1 hour at 37° C. with florescent dyes 2′,7′-dichlorodihydro-fluorescein diacetate (DCF; Molecular Probes; 4 μM) (Invitrogen Corp.) reflecting hydrogen peroxide formation (DCF staining localizes principally to mitochondria within myocytes), dihydroethidium (DHE; Molecular Probes; 2 μM) which assesses O2^− formation (typically nuclear localization), and nitrotyrosine formation (polyclonal nitrotyrosine Ab, 1:100; Upstate), which can reflect formation of ONOO^−. Imaging was performed on a Zeiss inverted epifluorescence microscope attached to an argon-krypton laser confocal scanning microscope (UltraVIEW, Perkin Elmer Life Sciences, Inc.). […] Nitrotyrosine was also quantitatively assessed by ELISA assay (Oxis International)."}, "[2]": {"tested_on": "C57/BL6 WT mice subjected to TAC pressure overload", "assay": "In vivo hemodynamics, PV loop analysis, in TAC mice", "set-up": "species or system mouse", "settings": "TAC 3 weeks", "excerpt": "(§1) Male NOS3 null mice (NOS3^−/−) and C57/BL6 WT controls (8-11 weeks, Jackson Labs, Bar Harbor, Me., USA) were used. Pressure overload was produced by transverse aorta constriction (TAC). Briefly, The aortic arch was isolated by entering the extrapleural space between the second and third rib, and afterwards the transverse aorta was isolated between the right and left carotid arteries. A 7-0 prolene suture ligature was tied around the transverse aorta against a 27-gauge needle to produce a 65-70% constriction after the removal of the needle. After closing the chest, animals were extubated, and a subcutaneous injection of morphine sulphate 0.2 mg, was administered before they returned to their cages. Animal's ventilatory and circulatory status was checked every 30 minutes during the first 2 hours. Sham-operated mice underwent the same operation except for aortic constriction. […] Animals were randomized to receive placebo or BH4 (120 mg/kg/d) for the next 5 weeks. At the end of the study, i.e. at 9 weeks, animal were sacrificed to receive tissue or underwent in vivo PV-loop analysis. […] Control mice were subject to sham operations, and animals were studied 3-9 weeks following surgery. An additional group of wild-type animals were subjected to TAC for 3 weeks while co-treated with oral tetrahydrobiopterin (BH4) (Sigma-Aldrich) (1 mg/g food) mixed in their rodent chow, providing 5 mg/day based on 4-6 g daily diet^8.\n(§2) Two different BH4 treatment protocols are used. For experiments related to FIGS. 1-7, where prevention of cardiac indications is described BH4 is provided orally as a treatment starting 2 days after TAC surgery (once mice are again eating oral diet). For those figures related to treatment of established cardiac indications, FIGS. 8-23, BH4 is provided orally but this is delayed for 4 weeks to establish substantial cardiac hypertrophy, remodeling, and NOS-uncoupling. Then the treatment is provided for the remaining 5 week period.\nIn vivo left ventricular (LV) function was assessed by pressure-volume catheter^12,13. Mice were anesthetized with 1-2% isoflurane, urethane ([…], i.p.), etomidate (5-10 mg/kg, i.p.), and morphine (1-2 mg/kg, i.p.), underwent tracheostomy, and were ventilated with 6-7 μL/g tidal volume and 130 breaths/min. Volume expansion (12.5% human albumin, 50-100 μL over 5 min) was provided through a 30 G cannula via the right external jugular vein. The left ventricular apex was exposed through an incision between the 7-8th rib, and a catheter, specifically a 1.4 Fr PV catheter (SPR 839, Millar Instruments, Inc.), was advanced through the apex to lie along the longitudinal axis. Absolute volume was calibrated, and pressure-volume data was measured at steady state and during transient reduction of venous return as reported^13"}, "[3]": {"tested_on": "C57/BL6 WT mice subjected to TAC pressure overload", "assay": "Transthoracic echocardiography in conscious TAC mice", "assay_type": "in vivo, mouse", "settings": "WT mice, TAC 3 weeks, oral co-treatment 1 mg/g food; mean ± sem", "excerpt": "as §1, §2\nFor folate studies, C57/BL6 WT were treated with folate (10 mg/kg/day) or with placebo for a 9 week period during which time the hearts were exposed to TAC.\nIn vivo cardiac morphology was assessed by transthoracic echocardiography (Acuson Sequoia C256, 13 MHz transducer, Siemens) in conscious mice. M-mode left ventricular (LV) end-systolic and end-diastolic dimensions were averaged from 3-5 beats. Left ventricular ejection fraction (LVEF) and percent fractional shortening (% FS) were calculated as: LVEF=[(LVEDD)^3-(LVESD)^3]/(LVEDD)^3×100; % FS=(LVEDD−LVESD)/LVEDD×100. Wall thickness of lateral freewall and intraventricular septum were averaged. Studies and analysis were performed blinded to heart condition."}, "[4]": {"settings": "oral co-treatment 1 mg/g food, mean ± sem"}}}
{"compound": "Nc1nc2c(c(=O)[nH]1)NC(C(O)C(O)CO)CN2", "note": "(centres unmarked) [H4N, tetrahydroneopterin]", "values": [{"measurement": "reactive oxygen species generation (luminol chemiluminescence, DHE, DCF)", "setting": "[1]", "value": "None of these changes were observed"}, {"measurement": "functional or remodeling response to TAC", "setting": "[2]; oral co-treatment", "value": "no effect"}, {"measurement": "Arterial Elastance", "setting": "[2]; [4]", "value": "11.4 ± 0.7", "unit": "mmHg/μL"}, {"measurement": "Ejection Fraction", "setting": "[2]; [4]", "value": "43.4 ± 9.8", "unit": "%"}, {"measurement": "End-diastolic Volume", "setting": "[2]; [4]", "value": "38.8 ± 8.0", "unit": "µL"}, {"measurement": "End-systolic Elastance", "setting": "[2]; [4]", "value": "41.0 ± 9.3", "unit": "mmHg/μL · g"}, {"measurement": "End-systolic Volume", "setting": "[2]; [4]", "value": "24.0 ± 7.6", "unit": "µL"}, {"measurement": "Heart RateR", "setting": "[2]; [4]", "value": "501.2 ± 28.5", "unit": "min⁻¹"}, {"measurement": "LV Systolic Pressure", "setting": "[2]; [4]", "value": "177.8 ± 4.6", "unit": "mmHg"}, {"measurement": "Peak Power Index", "setting": "[2]; [4]", "value": "31.8 ± 5.8", "unit": "mmHg/s"}, {"measurement": "Tau", "setting": "[2]; [4]", "value": "5.5 ± 0.36", "unit": "ms"}, {"measurement": "dPdtmn", "setting": "[2]; [4]", "value": "−10725 ± 971.0", "unit": "mmHg/s"}, {"measurement": "dPdtmx", "setting": "[2]; [4]", "value": "11154 ± 520", "unit": "mmHg/s"}, {"measurement": "Fractional Shortening", "setting": "[3]", "value": "33.8 ± 5.3", "unit": "%"}, {"measurement": "LV diameter Diastole", "setting": "[3]", "value": "3.94 ± 0.19", "unit": "mm"}, {"measurement": "LV diameter Systole", "setting": "[3]", "value": "2.70 ± 0.31", "unit": "mm"}, {"measurement": "Wall thickness", "setting": "[3]", "value": "0.98 ± 0.03", "unit": "mm"}]}
